Laboratory results reported in the supplement of paper PMC10307832.

Key:
Experiment in all cases: relative viability (nuclei count vs DMSO), 5 days (fraction); higher = more cells survive
[1] = compound: C1=CC2=NC=CN=C2C=C1/C=C/3\C(=O)NC(=O)S3 + COc1cccc2cc(-c3nc([C@H]4CC[C@H](C(=O)O)CC4)n4ncnc(N)c34)[nH]c12 [OSI-027] (partner 0.5 µM)
Summary of the method: (§1)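 Each reported value is a median over duplicate plates. It expresses relative viability: treated-well nuclei count divided by vehicle-well nuclei count. Lung cancer cell lines in 1536-well plates were dosed by pin tool a day after seeding, alone with one drug or with a fixed anchor-drug dose plus five library-drug doses (not always all listed) in √10 steps, and nuclei were counted after 5 days.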

[2] = compound: C1=CC2=NC=CN=C2C=C1/C=C/3\C(=O)NC(=O)S3 + CS(=O)(=O)N1CCN(Cc2cc3nc(-c4cccc5[nH]ncc45)nc(N4CCOCC4)c3s2)CC1 [Pictilisib] (partner 1 µM)
Summary of the method: as §1

[3] = compound: CCN1CCN(c2ccc(Nc3cc(N(C)C(=O)Nc4c(Cl)c(OC)cc(OC)c4Cl)ncn3)cc2)CC1 [BGJ398] + CS(=O)(=O)CCNCc1ccc(-c2ccc3ncnc(Nc4ccc(OCc5cccc(F)c5)c(Cl)c4)c3c2)o1 [Lapatinib] (partner 2 µM)
Summary of the method: as §1

[4] = compound: CCN1CCN(c2ccc(Nc3cc(N(C)C(=O)Nc4c(Cl)c(OC)cc(OC)c4Cl)ncn3)cc2)CC1 [BGJ398] + Cc1nc(Nc2ncc(C(=O)Nc3c(C)cccc3Cl)s2)cc(N2CCN(CCO)CC2)n1 [Dasatinib] (partner 0.075 µM)
Summary of the method: as §1

Row | Cell Line | relative viability ([1]; first compound 0.02 µM) | relative viability ([1]; first compound 0.06325 µM) | relative viability ([1]; first compound 0.2 µM) | relative viability ([1]; first compound 0.6325 µM) | relative viability ([1]; first compound 2 µM) | relative viability ([2]; first compound 0.02 µM) | relative viability ([2]; first compound 0.06325 µM) | relative viability ([2]; first compound 0.2 µM) | relative viability ([2]; first compound 0.6325 µM) | relative viability ([2]; first compound 2 µM) | relative viability ([3]; first compound 0.01 µM) | relative viability ([3]; first compound 0.1 µM) | relative viability ([3]; first compound 0.3162 µM) | relative viability ([3]; first compound 1 µM) | relative viability ([4]; first compound 0.01 µM) | relative viability ([4]; first compound 0.03162 µM) | relative viability ([4]; first compound 0.1 µM) | relative viability ([4]; first compound 0.3162 µM) | relative viability ([4]; first compound 1 µM) | relative viability ([3]; first compound 0.03162 µM)
1 | NCI-H1793 | 0.28 | 0.201 | 0.289 | 0.265 | 0.203 | 0.344 | 0.395 | 0.328 | 0.294 | 0.263 | 0.652 | 0.564 | 0.402 | 0.427 | 0.286 | 0.398 | 0.403 | 0.316 | 0.276 | 
2 | NCI-H520 | 0.25 | 0.356 | 0.249 | 0.27 | 0.36 | 0.306 | 0.356 | 0.32 | 0.242 | 0.246 | 0.747 | 0.661 | 0.339 | 0.281 | 0.138 | 0.177 | 0.138 | 0.142 | 0.146 | 0.722
3 | NCI-H460 | 0.727 | 1 | 0.781 | 0.525 | 0.394 | 0.376 | 0.281 | 0.338 | 0.324 | 0.199 | 1.02 | 1.6 | 1 | 1.23 | 0.479 | 0.523 | 0.46 | 0.522 | 0.498 | 1.05
4 | EKVX | 0.69 | 0.405 | 0.683 | 0.683 | 0.408 | 0.355 | 0.384 | 0.42 | 0.422 | 0.375 | 0.178 | 0.204 | 0.201 | 0.169 | 0.528 |  | 0.807 | 0.539 | 0.565 | 0.199
5 | NCI-H358 | 0.869 | 0.753 | 0.768 | 0.623 | 0.228 | 0.357 | 0.344 | 0.402 | 0.38 | 0.258 | 0.452 | 0.442 | 0.386 | 0.519 | 0.145 | 0.154 | 0.135 | 0.169 | 0.205 | 0.43
6 | EPLC-272H | 0.303 | 0.264 | 0.307 | 0.256 | 0.287 | 0.411 | 0.407 | 0.364 | 0.297 | 0.153 | 1.13 | 0.833 | 0.748 | 0.497 | 0.44 | 0.303 | 0.286 | 0.321 | 0.32 | 0.814
7 | NCI-H1563 | 0.834 | 0.823 | 0.76 | 0.734 | 0.65 | 0.663 | 0.659 | 0.691 | 0.635 | 0.634 | 0.926 | 0.761 | 0.721 | 0.669 | 0.461 | 0.491 | 0.432 | 0.391 | 0.329 | 1.01
8 | NCI-H1395 | 0.667 | 0.64 | 0.738 | 0.588 | 0.583 | 0.669 | 0.596 | 0.786 | 0.564 | 0.512 | 1.1 | 0.823 | 0.569 | 0.476 | 0.41 | 0.397 | 0.363 | 0.379 | 0.313 | 1.75
9 | NCI-H2126 | 0.627 | 0.629 | 0.735 | 0.734 | 0.363 | 0.448 | 0.56 | 0.498 | 0.474 | 0.411 | 0.808 | 0.764 | 0.785 | 0.678 | 0.696 | 0.646 | 0.565 | 0.687 | 0.563 | 0.765
10 | LXF-289 | 0.744 | 0.756 | 0.788 | 0.804 | 0.395 | 0.723 | 0.843 | 0.801 | 0.771 | 0.635 | 0.827 | 0.817 | 0.77 | 0.7 | 0.194 | 0.218 | 0.184 | 0.254 | 0.156 | 0.85
11 | NCI-H2009 | 0.682 | 0.659 | 0.701 | 0.579 | 0.452 | 0.859 | 0.891 | 0.964 | 0.712 | 0.744 | 0.863 | 0.965 | 0.924 | 0.955 | 0.275 | 0.311 | 0.295 | 0.329 | 0.297 | 0.966
12 | NCI-H2405 | 0.644 | 0.698 | 0.648 | 0.6 | 0.225 | 0.488 | 0.504 | 0.428 | 0.433 | 0.182 | 1.15 | 1.05 | 1.07 | 0.857 | 0.213 | 0.236 | 0.233 | 0.225 | 0.192 | 1.32
13 | NCI-H1755 | 0.712 | 0.838 | 0.71 | 0.699 | 0.575 | 0.423 | 0.403 | 0.515 | 0.449 | 0.426 | 1.01 | 1.05 | 1.01 | 1.01 | 0.406 | 0.464 | 0.45 | 0.411 | 0.313 | 1.04
14 | HCC-78 | 0.362 | 0.408 | 0.352 | 0.347 | 0.279 | 0.267 | 0.202 | 0.246 | 0.206 | 0.169 | 0.568 | 1 | 0.707 | 0.581 | 0.385 | 0.375 | 0.34 | 0.388 | 0.362 | 1.04
15 | LOU-NH91 | 0.726 | 0.767 | 0.673 | 0.681 | 0.464 | 0.528 | 0.535 | 0.535 | 0.498 | 0.484 | 0.733 | 0.731 | 0.727 | 0.688 | 0.522 |  | 0.59 | 0.459 | 0.522 | 0.771
16 | NCI-H3122 | 0.935 | 1.16 | 0.89 | 1.03 | 0.46 | 0.697 | 0.487 | 0.578 | 0.547 | 0.364 | 0.97 | 1.03 | 1.07 | 1.08 | 0.761 | 0.833 | 0.923 | 0.785 | 0.991 | 1.03
